Measurements published in ChEMBL document CHEMBL1151275, “An anthraquinone with potent quinone reductase-inducing activity and other constituents of the fruits of Morinda citrifolia (noni)” (J Nat Prod, 2005).

Legend:
[1] = Chemoprevention index, ratio of IC50 for mouse Hepa-1c1c7 cells to drug level required to double specific NADPH:quinone reductase activity in mouse Hepa-1c1c7 cells; type: functional
[2] = Cytotoxicity against mouse Hepa-1c1c7 cells after 48 hrs by crystal violet staining; type: cell-based; conditions: Hepa-1c1c7, 48 h

Compound `COc1c(O)cc2c(c1O)C(=O)c1ccc(O)cc1C2=O` has a Ratio [1] greater than 7770 and an IC50 [2] greater than 69.9 µM.
Work on `COc1ccc(O)c2c1C(=O)c1ccc(CO)c(O)c1C2=O` yielded a Ratio [1] greater than 39.9 and an IC50 [2] greater than 66.6 µM.
In the case of `C[S@+]([O-])CCCCN=C=S` [L-SULFORAPHANE], the Ratio [1] is reported as 28.7 and the IC50 [2] is reported as 9.77 µM.
